Measurements published in publication PMC8952293, “A Histone Deacetylase (HDAC) Inhibitor with Pleiotropic In Vitro Anti-Toxoplasma and Anti-Plasmodium Activities Controls Acute and Chronic Toxoplasma Infection in Mice” (International Journal of Molecular Sciences, 2022).
Like-named read-outs stand apart in the source and are kept apart here.

Legend:
P. falciparum NF54 = test: In vitro P. falciparum erythrocytic infection (SYBR green I flow cytometry); type: cell-based; conditions: Plasmodium falciparum, PfNF54 blood stage, 48 h, three independent experiments
Method: Blood stage. Ring-stage synchronized cultures of PfNF54 at 2.5% hematocrit and at approximately 1% parasitemia were incubated with drugs or DMSO (vehicle control) in 96-well plates, for 48 h, at 37 °C in a 5% CO2 and 5% O2 atmosphere. The stock solution of JF363 was prepared in DMSO. Working solutions (1, 10, 100, 200, 500, 1000, 2000 nM) were prepared from the stock solution in a complete malaria culture medium (CMCM), which consisted of RPMI 1640 supplemented with 25 mM HEPES, 2.4 mM L-glutamine, 50 μg/mL gentamicin, 0.5% w/v AlbuMAX (Gibco BRL), 11 mM glucose, 1.47 mM hypoxanthine, and 37.3 mM NaHCO3. Five microliters of the culture (approximately 800,000 cells) was stained with the DNA-specific dye SYBR green I for each measurement. Following 20 min incubation in the dark, the stained sample was analyzed by flow cytometry. For each flow cytometry measurement, approximately 100,000 events were analyzed. All samples were analyzed in triplicate, and three different experiments were performed and analyzed using GraphPad Prism 8 (Prism 4 for Mac OS X, version 5.0b, San Diego, CA, USA).

[1] = Ex vivo biodistribution, ratios infected/control mice; type: in vivo; conditions: suggested from brain radioactivity of the iodinated radiotracer
Method: Twenty-four hours after injection and immediately following SPECT/CT image acquisitions, anesthetized mice were euthanized using CO2, and tissue samples (brain, heart, stomach, liver, salivary glands, abdominal fat, small intestine, muscle, pancreas, lungs, spleen, kidneys, blood, thyroid, large intestine, genital tract) and urine were harvested. Samples were weighed, and their radioactivity was determined with a gamma counter (Wizard2, PerkinElmer, Courtaboeuf, France). Results were corrected for decay, injected dose, and organ weight and expressed as % ID/g because the bodyweight (BW) of mice was different between both groups (normal and infected).
Standard uptake values (SUVs) were also calculated ((tissue activity/gram of tissue)/ID × BW). Due to high activity detected in the animal blood, results were also expressed as a ratio between %ID in a gram of organ and %ID in a gram of blood (org/blood ratio). Then, to assess the effect of Toxoplasma infection on the biodistribution of the iodoJF363, the ratios of radioactivity (infected/noninfected) were calculated.

[2] = tested on: T. gondii type I RH strain; test: Acute toxoplasmosis survival study in CD1 mice; type: in vivo, mouse; conditions: for mouse survival, by day: once a day for 7 days, untreated infected mice succumbed by day 9
Method: To determine the in vivo anti-Toxoplasma effect of the molecule JF363 during the acute phase of infection, we analyzed the survival rate of non-inbred CD1 mice infected by the type I RH strain treated for […]. […] All untreated and infected mice succumbed by day 9 (Figure 3).
Non-inbred CD1a mice (Janvier Labs, Le Genest-Saint-Isle, France) were intraperitoneally infected with 100 tachyzoites of RH YFP strain in […] of PBS. Six hours post-infection and then once a day for 7 days, mice were treated per os with either 40 or 160 mg/kg of JF363 prepared in corn oil/5% DMSO. Control animals were treated with the vehicle alone. Animals were monitored each day and sacrificed when the limit points were reached.

Toxoplasma gondii = test: In vitro anti-Toxoplasma proliferation in infected HFF monolayers (parasitic index, ScanR microscopy); type: cell-based
Method: To investigate the effect of the JF363 on parasite proliferation, human HFFs were infected and treated with JF363 (concentrations ranging from 0 to 2 μM). After 24 h of culture, parasites were enumerated within the parasitophorous vacuole, and the IC50 was calculated for each parasite strain (Table 1).
To assess the drug activity on Toxoplasma gondii, confluent HFF monolayers were infected with parasites, 5 × 10^4 per well, then centrifuged for 30 s at 500× g and incubated for 30 min in a water bath at 37 °C to allow invasion. The wells were then washed three times with phosphate-buffered saline (PBS) to eliminate extracellular parasites, and drugs were added at various concentrations ranging from 1 to 2 μM in triplicate. After 24 h incubation at 37 °C in a humidified atmosphere containing 5% CO2, Hoechst 33342 (5 μg/mL) was added to host cells infected by parasites and further incubated for 20 min. After two washes, cells were fixed with 3.7% formaldehyde for 10 min at 37 °C.
In experiments using nonfluorescent parasites, Toxoplasma vacuoles were fixed for 15 min with 3.7% formaldehyde and stained with anti-GRA1 mAb diluted 1/500 in 2% bovine serum albumin (BSA) and 0.1% Triton X-100 in PBS, for 1 h at room temperature. After two washes, goat serum anti-mouse IgG (H + L)–Alexa-488 (1/500) was added for 20 min. Finally, Hoechst 33342 was added as described above.
The number of infected cells, i.e., cells harboring parasitophorous vacuoles, and the number of parasites per vacuole were determined using an Olympus ScanR microscope (×20 objective) and ScanR software. First, the parasitic index (PI) in % compared to the control was calculated as follows: PI = ((number of parasite/100 cells in treated wells) × (% of infected HFFs in treated well)/(number of parasite/100 cells in untreated wells) × (% of infected HFFs in untreated wells)) × 100. Then, the 50% inhibitory concentration (IC50) was calculated using Prism software (Prism 4 for Mac OS X, version 5.0b, San Diego, CA, USA).

Huh7 cells = test: Host cell viability (cell confluency, AlamarBlue) in the hepatic infection assay; type: cell-based, human; conditions: at the tested concentrations (up to 500 nM)
Method: Liver stage. The action of JF363 against the liver stage of P. berghei infection was assessed by bioluminescence, as previously described. Briefly, one day before infection, Huh7 cells were seeded in 96-well plates. JF363 stock solution was prepared in dimethyl sulfoxide (DMSO) and serially diluted in infection medium (culture medium supplemented with 50 µg/mL of gentamicin and 0.8 µg/mL of fungizone) to obtain the test concentrations (1, 10, 25, 50, […], 500 nM). These were added to the cells and incubated for 1 h at 37 °C and 5% CO2, after which 1 × 10^4 sporozoites were added to the wells. Plates were centrifuged at 1800× g for 5 min and incubated at 37 °C with 5% CO2 for the assay duration. At 46 h post-infection, the impact of the compound on cell viability was assessed by the AlamarBlue assay (Invitrogen, Carlsbad, CA, USA), following the manufacturer’s instructions. Following the manufacturer’s instructions, the drug’s effect on the parasite load was next evaluated using the Firefly Luciferase Assay Kit 2.0 (Biotium, Fremont, CA, USA). For IC50 determination, nonlinear regression analysis was employed to fit the normalized results of the dose–response curves, using GraphPad Prism 8 (Prism 4 for Mac OS X, version 5.0b, San Diego, CA, USA).

## COc1cccc(CC(=O)Nc2ccc(C(=O)NO)cc2)c1 [JF363]
P. falciparum NF54
  IC50: 230 ± 15 nM
[1]
  blood–brain barrier permeability: suggests a permeability of the blood–brain barrier
[2]; 40 mg/kg oral
  mouse survival, by day: 11 days
[2]; 40 mg/kg oral, lethal dose of RH strain
  increase of mouse survival: two days
[2]; 160 mg/kg oral
  mouse survival, by day: 14 days
Toxoplasma gondii; 24 h, read-out: IC50 range, strains other than haplogroup I and II, 24 h
  IC50: 170 to 430 nM
Toxoplasma gondii; 24 h, strain GUY008-ABE, haplogroup 5, clade F, 24 h, mean ± SD of 3 experiments
  IC50: 300 ± 210 nM
Toxoplasma gondii; 24 h, strain GUY009-AKO, haplogroup 10, clade F, 24 h, mean ± SD of 3 experiments
  IC50: 430 ± 120 nM
Toxoplasma gondii; 24 h, strain GUY021-TOJ, haplogroup 10, clade F, 24 h, mean ± SD of 3 experiments
  IC50: 270 ± 30 nM
Toxoplasma gondii; 24 h, strain GUY-JAG1, haplogroup 11, no clade, 24 h, mean ± SD of 3 experiments
  IC50: 170 ± 340 nM
Toxoplasma gondii; 24 h, strain MAS, haplogroup 4, clade B, 24 h, mean ± SD of 3 experiments
  IC50: 210 ± 10 nM
Toxoplasma gondii; 24 h, strain Prugniaud, haplogroup 2, clade D, 24 h, mean ± SD of 3 experiments
  IC50: 270 nM
Toxoplasma gondii; 24 h, strain RH-YFP, haplogroup 1, clade A, 24 h, mean ± SD of 3 experiments
  IC50: 560 ± 50 nM
Toxoplasma gondii; 24 h, strain VEG, haplogroup 3, clade C, 24 h, mean ± SD of 3 experiments
  IC50: 180 ± 70 nM
Toxoplasma gondii; all tested T. gondii strains, depending on the haplogroup, read-out: IC50 range
  IC50: 170 to 560 nM
Huh7 cells
  toxicity towards the hepatic host cells (cell confluency): did not present toxicity
